Results reported in US12280052B2, “Compositions and methods for the treatment of adenomyosis and rectovaginal endometriosis” (ObsEva S.A., priority 2018, dated 2025).

Assays:
human GnRH receptor = target: T1, human GnRH receptor (Homo sapiens, UniProt P30968); assay: affinity for human GnRH receptor; format: binding; conditions: kind of constant not stated
T1 sequence (P30968 1-328): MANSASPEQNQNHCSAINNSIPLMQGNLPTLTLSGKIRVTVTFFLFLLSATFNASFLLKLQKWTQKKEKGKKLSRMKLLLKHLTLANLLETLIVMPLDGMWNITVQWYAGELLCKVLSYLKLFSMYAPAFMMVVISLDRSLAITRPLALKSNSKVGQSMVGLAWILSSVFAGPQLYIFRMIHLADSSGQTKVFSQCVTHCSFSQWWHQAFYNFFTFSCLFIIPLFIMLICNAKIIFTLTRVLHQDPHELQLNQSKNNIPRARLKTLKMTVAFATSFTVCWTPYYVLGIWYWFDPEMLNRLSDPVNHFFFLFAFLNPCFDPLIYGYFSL

[1] = tested on: human female patients suffering from adenomyosis; assay: open-label Phase II clinical trial of compound (VI) in adenomyosis, representative patient; format: in vivo; conditions: for mB&B score: composite score 0-15, baseline 6.0 (Severe); for mB&B score / Change from baseline in EHP-30 score for control and powerlessness / Change from baseline in EHP-30 score for emotional well-being / Change from baseline in EHP-30 score for pain / Change from baseline in EHP-30 score for self-image / Change from baseline in EHP-30 score for social support / Change from baseline in global pelvic pain by NRS / Change from baseline in mB&B score / Change from baseline in uterine volume by MRI / Change from baseline in uterine volume by TVUS / Uterus height by TVUS / Uterus depth by TVUS / Uterus length by TVUS / mB&B score, severity class / EHP-30 Score: Pain (Questions 1-11 of EHP-30) / EHP-30 Score: Social Support (Questions 24-27 of EHP-30) / EHP-30 Score: Self-Image (Questions 28-30 of EHP-30) / EHP-30 Score: Emotional Well-being (Questions 18-23 of EHP-30) / EHP-30 Score: Control and Powerlessness (Questions 12-17 of EHP-30) / Global pelvic pain by numerical rating scale (NRS) / Patient Global Impression of Change since Baseline (PGIC) / Uterus volume by transvaginal ultrasound (TVUS) / Uterus volume by MRI: representative patient; for Uterus height by TVUS: baseline 5.6 cm; for Uterus depth by TVUS: baseline 6.5 cm; for Uterus length by TVUS: baseline 6.7 cm; for mB&B score, severity class: baseline Severe; for EHP-30 Score: Pain (Questions 1-11 of EHP-30): scale 0 (best) to 100 (worst health status), baseline 63.6; for EHP-30 Score: Social Support (Questions 24-27 of EHP-30) / EHP-30 Score: Self-Image (Questions 28-30 of EHP-30) / EHP-30 Score: Emotional Well-being (Questions 18-23 of EHP-30) / EHP-30 Score: Control and Powerlessness (Questions 12-17 of EHP-30): scale 0 (best) to 100 (worst); for EHP-30 Score: Social Support (Questions 24-27 of EHP-30): baseline 43.8; for EHP-30 Score: Self-Image (Questions 28-30 of EHP-30): baseline 50.0; for EHP-30 Score: Emotional Well-being (Questions 18-23 of EHP-30): baseline 66.7; for EHP-30 Score: Control and Powerlessness (Questions 12-17 of EHP-30): baseline 70.8; for Global pelvic pain by numerical rating scale (NRS): scale 0 (no pain) to 10 (worst pain imaginable), baseline 7; for Patient Global Impression of Change since Baseline (PGIC): scale 1 (Very much improved) to 7 (very much worse); for Uterus volume by transvaginal ultrasound (TVUS): volume = l × h × d × 0.523, baseline 128 cm^3; for Uterus volume by MRI: baseline 198
Description: This example describes the results of an open-label, Phase II clinical trial examining the safety and efficacy of the GnRH antagonist, compound (VI) (3-[2-fluoro-5-(2,3-difluoro-6-methoxybenzyloxy)4-methoxyphenyl]-2,4-dioxo-1,2,3,4-tetrahydrothieno [3,4d]pyrimidine-5-carboxylic acid), for treating human female patients suffering from adenomyosis. The study began with a 4-week patient screening period, followed by two consecutive 12-week treatment periods. During the first 12-week treatment period, patients were administered compound (VI) in a single daily dose of 200 mg. During the second 12-week treatment period, patients were administered compound (VI) in a single daily dose of 100 mg. Patients then entered a post-treatment follow-up period during which the effects of compound (VI) were further assessed.
The total duration of this study (from the screening visit to the end-of-study visit) was 40 weeks per subject. The study began with a 4-week screening period evaluating the symptoms of uterine adenomyosis and assessing the volume of each patient's adenomyosis-affected uterus by way of MRI. During this period, the patients received no study drug.
At the start of menstruation, the patients were administered 200 mg of compound (VI), once daily, in the form of the corresponding choline salt. The administration continued over the course of a 12-weel treatment period, referred to as the “initiation phase,” so as to maximize the effect of the treatment. After the first 12-week treatment period, the therapeutic effect of the GnRH antagonist was maintained by administering 100 mg of compound (VI), once daily, over the course of a second 12-week treatment period. This second treatment period was referred to as the “maintenance phase.”
At the end of the maintenance phase (at week 24), the patients entered a 12-week follow-up period without any active treatment.
The primary efficacy endpoint of this study was a change, from baseline to week 24, in volume of the adenomyosis-affected uterus, as measured by MRI. Secondary endpoints under investigation in this study were as follows: • Change from baseline to weeks 12 and 36 in volume of the uterus with adenomyosis measured by MRI • Change from baseline to weeks 12, 24 and 36 in volume of the uterus with adenomyosis measured by TVUS • Change from baseline to weeks 12, 24 and 36 in the largest thickness of the anterior and posterior part of the uterus myometrium (sagittal assessment) • Change from baseline to weeks 12, 24 and 36 in the largest diameter of the junctional zone of the uterine adenomyosis measured by MRI • Presence of blood spots on the MRI images • Change from baseline to weeks 12, 24 and 36 in uterus volume assessed at vaginal examination • Change from baseline to weeks 12, 24 and 36 in uterine tenderness assessed at vaginal examination • Change from baseline to weeks 12, 24 and 36 in dysmenorrhea, pelvic pain and dyspareunia according to the mB&B scale • Change from baseline to weeks 4, 8, 12, 16, 20, 24 and 36 for global pelvic pain assessed over the preceding 4-week period using a Numerical Rating Scale (NRS) with a monthly recall • Change from baseline to weeks 4, 8, 12, 16, 20, 24, 28, 32 and 36 in the mean monthly dyspareunia score defined as the mean of available daily dyspareunia scores over the preceding 4-week period assessed on the Verbal Rating Scale (VRS) dyspareunia scale and on a NRS • Change from baseline to weeks 4, 8, 12, 16, 20 and 24 fin the mean monthly dyschezia score defined as the mean of weekly dyschezia scores over the preceding 4-week period using a NRS • No uterine bleeding (or spotting only), during the 4-week period preceding weeks 4, 8, 12, 16, 20 and 24 using a simplified bleeding scale • Time to amenorrhea • Change from baseline to weeks 12, 24 and 36 in the Endometriosis Health Profile questionnaire (EHP-30) • Patient Global Impression of Change (PGIC) score at weeks 12, 24 and 36 Data Analysis and Statistics […]

[2] = week 24 (100 mg once daily after 12 weeks of 200 mg)

Structure (SMILES): COc1cc(F)c(-n2c(=O)[nH]c3csc(C(=O)O)c3c2=O)cc1OCc1c(OC)ccc(F)c1F [Compound (VI), 3-[2-fluoro-5-(2,3-difluoro-6-methoxybenzyloxy)4-methoxyphenyl]-2,4-dioxo-1,2,3,4-tetrahydrothieno [3,4d]pyrimidine-5-carboxylic acid]
- affinity for human GnRH receptor (human GnRH receptor): 27.4 nM
- uterine volume, conclusion in words ([1]; 24 weeks of treatment, 200 mg then 100 mg once daily): sustained reduction in uterine volume
- adenomyosis-associated pain, conclusion in words ([1]; 24 weeks of treatment, 200 mg then 100 mg once daily, various metrics): substantial reduction in adenomyosis-associated pain
- mB&B score ([1]; week 12 (200 mg once daily)): 2.0
- Change from baseline in EHP-30 score for control and powerlessness ([1]; week 12 (200 mg once daily)): −70.8
- Change from baseline in EHP-30 score for emotional well-being ([1]; week 12 (200 mg once daily)): −66.7
- Change from baseline in EHP-30 score for pain ([1]; week 12 (200 mg once daily)): −63.6
- Change from baseline in EHP-30 score for self-image ([1]; week 12 (200 mg once daily)): −50.0
- Change from baseline in EHP-30 score for social support ([1]; week 12 (200 mg once daily)): −43.8
- Change from baseline in global pelvic pain by NRS ([1]; week 12 (200 mg once daily)): −7
- Change from baseline in mB&B score ([1]; week 12 (200 mg once daily)): −4
- Change from baseline in uterine volume by MRI ([1]; week 12 (200 mg once daily)): −114 cm^3
- Change from baseline in uterine volume by TVUS ([1]; week 12 (200 mg once daily)): −79 cm^3
- Uterus height by TVUS ([1]; week 12 (200 mg once daily)): 4.1 cm
- Uterus depth by TVUS ([1]; week 12 (200 mg once daily)): 5.0 cm
- Uterus length by TVUS ([1]; week 12 (200 mg once daily)): 4.5 cm
- mB&B score, severity class ([1]; week 12 (200 mg once daily)): Mild (Mild (1-2))
- EHP-30 Score: Pain (Questions 1-11 of EHP-30) ([1]; week 12 (200 mg once daily)): 0.0
- EHP-30 Score: Social Support (Questions 24-27 of EHP-30) ([1]; week 12 (200 mg once daily)): 0
- EHP-30 Score: Self-Image (Questions 28-30 of EHP-30) ([1]; week 12 (200 mg once daily)): 0
- EHP-30 Score: Emotional Well-being (Questions 18-23 of EHP-30) ([1]; week 12 (200 mg once daily)): 0
- EHP-30 Score: Control and Powerlessness (Questions 12-17 of EHP-30) ([1]; week 12 (200 mg once daily)): 0
- Global pelvic pain by numerical rating scale (NRS) ([1]; week 12 (200 mg once daily)): 0
- Patient Global Impression of Change since Baseline (PGIC) ([1]; week 12 (200 mg once daily)): 1—Very
- Uterus volume by transvaginal ultrasound (TVUS) ([1]; week 12 (200 mg once daily)): 48 cm^3
- Uterus volume by MRI ([1]; week 12 (end of initiation phase, 200 mg once daily as choline salt)): 84 cm^3
- mB&B score [1, 2]: 2.0
- Change from baseline in EHP-30 score for control and powerlessness [1, 2]: −70.8
- Change from baseline in EHP-30 score for emotional well-being [1, 2]: −66.7
- Change from baseline in EHP-30 score for pain [1, 2]: −56.8
- Change from baseline in EHP-30 score for self-image [1, 2]: −50.0
- Change from baseline in EHP-30 score for social support [1, 2]: −43.8
- Change from baseline in global pelvic pain by NRS [1, 2]: −6
- Change from baseline in mB&B score [1, 2]: −4
- Change from baseline in uterine volume by MRI [1, 2]: −123 cm^3
- Change from baseline in uterine volume by TVUS [1, 2]: −79 cm^3
- Uterus height by TVUS [1, 2]: 4.0 cm
- Uterus depth by TVUS [1, 2]: 5.0 cm
- Uterus length by TVUS [1, 2]: 4.6 cm
- mB&B score, severity class [1, 2]: Mild (Mild (1-2))
- EHP-30 Score: Pain (Questions 1-11 of EHP-30) [1, 2]: 6.8
- EHP-30 Score: Social Support (Questions 24-27 of EHP-30) [1, 2]: 0
- EHP-30 Score: Self-Image (Questions 28-30 of EHP-30) [1, 2]: 0
- EHP-30 Score: Emotional Well-being (Questions 18-23 of EHP-30) [1, 2]: 0
- EHP-30 Score: Control and Powerlessness (Questions 12-17 of EHP-30) [1, 2]: 0
- Global pelvic pain by numerical rating scale (NRS) [1, 2]: 1
- Patient Global Impression of Change since Baseline (PGIC) [1, 2]: 1—Very
- Uterus volume by transvaginal ultrasound (TVUS) [1, 2]: 48 cm^3
- Uterus volume by MRI ([1]; week 24 (end of maintenance phase, 100 mg once daily after 12 weeks of 200 mg)): 75 cm^3
